Reference: patent US7893304B2, “Hydroquinone long-chain derivatives and/or phenoxy long-chain derivatives, and pharmaceuticals comprising the same” (Meiji Dairies Corporation, priority 2005, dated 2011)
“Also recorded” adds a separate entry of the source.

Columns and labels:
[1] = DPPH scavenging ability test (active organic radical species scavenging ability); design: key to DPPH test: +: effective; −: >10 mM; conditions: for IC50: percent decrease in OD at 550 nm, 400 μM DPPH in ethanol
Description: The ability of the derivatives obtained in preparation processes A and B to scavenge 2,2-diphenyl-1-picrylhydrazyl (DPPH) (active organic radical species scavenging ability) was measured by the following method.
Trolox® and the test compounds were individually dissolved in ethanol and the solutions were adjusted to a final concentration of 10 mM. Next, each solution was diluted severalfold to obtain solutions at concentrations ranging from 10 mM to 1 μM.
100 μl of each of the obtained ethanol solutions was added to a multi-well ELISA plate along with 100 μl of 400 μM DPPH solution in ethanol. The absorbance (optical density, OD) at 550 nm was measured for these solutions.
DPPH scavenging ability was determined for each test compound based on the results of these measurements. For comparison, the test compound solutions in ethanol were substituted with ethanol alone.
The scavenging ability of each test compound is presented as a percent decrease in OD with respect to the absorbance of the comparative sample.

[2] = OH radical scavenging ability test (ABTS scavenging assay, Fenton reaction); design: key to OH test: +: effective; −: >10 mM; conditions: for IC50: ABTS competition, OD at 405 nm, 45 minutes at room temperature
Description: Hydroxyl radical scavenging ability was measured for derivatives obtained in preparation processes A, B, and E by the following method using an ABTS (2,2′-azinobis(3-ethylbenzthiazolin-6-sulfonic acid)) scavenging assay.
In this test, hydroxyl radicals were generated in situ by the Fenton reaction. Next, competitive reactions between ABTS and the test compounds took place, and the hydroxyl radicals were scavenged by ABTS to form ABTS^+ radical cations, or were scavenged by the test compounds.
The test compounds and Trolox® were individually dissolved in ethanol and the solutions were adjusted to a final concentration of 10 mM. Each solution was then diluted severalfold to obtain solutions at concentrations ranging from 10 mM to 1 μM.
Next, 180 μl of 1:1 ethanol-water solution was added to a multi-well ELISA plate, and then 30 μl of 1 mM aqueous ABTS solution, 30 μl of 0.5 mM aqueous Fe2SO4 solution, 30 μl of a solution of each test compound in ethanol, and 30 μl of 100 mM aqueous hydrogen peroxide solution were added. The obtained solutions were left to stand for 45 minutes at room temperature, and the absorbance (OD) at 405 nm was measured. OH radical scavenging ability was determined for each test compound based on the results of these measurements. For comparison, the test compound solutions in ethanol were substituted with ethanol alone.

[3] = test system: E15 neurons; assay: Axonal growth in primary culture of CNS neurons (morphometric analysis); format: cell-based, mouse
Description: Fetal mouse (15 days old) cerebral hemispheres were dissected in cold Gey's balanced salt solution supplemented with glucose to isolate the neocortex. Cells were dispersed by trypsin and mechanical dissociation. Next, the cells were plated at a concentration of 200,000 cells/well onto cover slips coated with 1 μg/ml of poly-L-lysine, and the cells were cultured in a serum-containing medium (Dulbecco's modified Eagle medium, 2 mM glutamine, 1 g/l glucose, 10% fetal calf serum, and penicillin/streptomycin) in 5% CO2 at 37° C. for 24 hours.
On day 2, the medium was substituted with a chemically defined medium (Dulbecco's modified Eagle medium, 2 mM glutamine, 1 g/l glucose, 16 μg/ml putrescine, 52 ng/ml selenium, 10 μg/ml holotransferrin, 5 μg/ml insulin, and 3 ng/ml progesterone), and test compounds were added at different concentrations. The cells were cultured in 5% CO2 at 37° C. for 24 hours.
On day 3, the cells were fixed with 4% formaldehyde in phosphate buffered saline (PBS) for ten minutes. After two washes with PBS, permeation of cells was performed with 100% methanol for five minutes. […]
Photographs were randomly taken (×20 magnification) using an Axiovert 200 microscope (Zeiss) equipped with a digital camera. The axonal length of each neuron was determined using a computer-assisted image analyzer (UTHSCSA Image Tool 3.0).

[4] = test system: E15 neurons; conditions: J. Neurochem., 90 (6), 1423-31, 2004; cited from earlier work
[5] = read-out: IC50 (μM), OH radical scavenging ability
[6] = read-out: IC50, OH radical scavenging ability

| Compound | DPPH test ([1]; Table 4, formula (2) compounds) | OH test ([2]; Table 4, formula (2) compounds) | DPPH test ([1]; Table 3, formula (1) compounds) | IC50 [1] | other results |
| --- | --- | --- | --- | --- | --- |
| COc1ccc(OC)c(NCCCCCCCCCCCCO)c1 [Synthesis Example C-(23), 12-(2,5-Dimethoxyphenylamino)dodecan-1-ol] | − (−: >10 mM) | − (−: >10 mM) | – | – | – |
| COc1ccc(OC)c(CCCCCCCCCCCCCCCCO)c1 [Synthesis Example A-(8), 16-(2,5-dimethoxyphenyl)hexadecan-1-ol] | – | – | − (−: >10 mM) | – | OH test ([2]; Table 3, formula (1) compounds): − (−: >10 mM) |
| COc1ccc(OC)c(OCCCCCCCCCCCCO)c1 [Synthesis Example D-(29), 12-(2,5-dimethoxyphenoxy)dodecan-1-ol] | − (−: >10 mM) | − (−: >10 mM) | – | – | – |
| Cc1c(C)c2c(c(C)c1O)CCC(C)(C(=O)O)O2 (stereo not shown) [Trolox ®, reference compound] | – | – | – | 0.23 mM | IC50 [2, 5]: 600 µM |
| OCCCCCCCCCCCCc1cc(O)ccc1O [Synthesis Example E-(31), 2-(12-hydroxydodecyl)benzene-1,4-diol] | – | – | – | 0.23 mM | IC50 [2, 5]: 6 µM |
| COc1ccc(OC)c(NCCCCCCCCCCO)c1 [Synthesis Example C-(24), 10-(2,5-Dimethoxyphenylamino)decan-1-ol] | − (−: >10 mM) | − (−: >10 mM) | – | – | – |
| COc1cc(OC)c(OC)cc1CCCCCCCCCCCCCCCO [Synthesis Example B-(15), 15-(2,4,5-trimethoxyphenyl)pentadecan-1-ol] | – | – | − (−: >10 mM) | – | – |
| COc1ccc(OC)c(CCCCCCCCCCCCCCCO)c1 [Synthesis Example A-(7), 15-(2,5-dimethoxyphenyl)pentadecan-1-ol] | – | – | − (−: >10 mM) | – | OH test ([2]; Table 3, formula (1) compounds): − (−: >10 mM); axonal growth-promoting activity (in words) ([3]; 24 hours with compound, listed as QFA15): the most active compound; also recorded: greater axonal growth-promoting ability at a lower concentration; also recorded: effective axonal growth-promoting agent; axonal growth-promoting effect, value of FIG. 4 micrographs ([3]; control 85 μM, the values are: axonal length): 155 µm |
| CC1=C(CCCCCCCCCCCCCCCO)C(C)(C)CCC1=O [tCFA15, 3-(15-hydroxypentadecyl)-2,4,4-trimethyl-2-cyclohexen-1-one] | – | – | – | – | axonal growth-promoting activity in a previous study (in words) [4]: showed similar results |
| COc1cc(OC)c(OC)cc1CCCCCCCCCCCCCCCCO [Synthesis Example B-(16), 16-(2,4,5-trimethoxyphenyl)hexadecan-1-ol] | – | – | − (−: >10 mM) | – | – |
| COc1ccc(OC)c(NCCCCCCCCCCCCCCO)c1 [Synthesis Example C-(22), 14-(2,5-Dimethoxyphenylamino)tetradecan-1-ol] | − (−: >10 mM) | − (−: >10 mM) | – | – | – |
| COc1cc(OC)c(OC)cc1CCCCCCCCCCCCCCO [Synthesis Example B-(13), 14-(2,4,5-trimethoxyphenyl)tetradecan-1-ol] | – | – | − (−: >10 mM) | – | – |
| COc1ccc(OC)c(OCCCCCCCCCCCCCCCCO)c1 [Synthesis Example D-(30), 16-(2,5-dimethoxyphenoxy)hexadecan-1-ol] | − (−: >10 mM) | − (−: >10 mM) | – | – | – |
| COc1cc(OC)c(OC)cc1CCCCCCCCCCCCO [Synthesis Example B-(14), 12-(2,4,5-trimethoxyphenyl)dodecan-1-ol] | – | – | − (−: >10 mM) | > 10 mM | IC50 [2, 5]: 720 µM |
| COc1ccc(OC)c(CCCCCCCCCCCCO)c1 [Synthesis Example A-(5), 12-(2,5-dimethoxyphenyl)dodecan-1-ol] | – | – | − (−: >10 mM) | > 10 mM | IC50 [2, 6]: > 10000 µM; OH test ([2]; Table 3, formula (1) compounds): − (−: >10 mM) |
| OCCCCCCCCCCCCCCCCCCc1cc(O)ccc1O [Synthesis Example E-(32), 2-(18-hydroxyoctadecyl)benzene-1,4-diol] | – | – | – | 0.23 mM | IC50 [2, 5]: 6 µM |
| COc1cc(OC)c(OC)cc1CCCCCCCCCCCCCCCCCCO [Synthesis Example B-(17), 18-(2,4,5-trimethoxyphenyl)octadecan-1-ol] | – | – | − (−: >10 mM) | > 10 mM | IC50 [2, 5]: 720 µM |
| OCCCCCCCCCCCCCCCc1cc(O)ccc1O [Synthesis Example E-(34), 2-(15-hydroxypentadecyl)benzene-1,4-diol] | – | – | – | 0.23 mM | IC50 [2, 5]: 6 µM |
| CCCCCCCCCCCCCCCCc1cc(O)ccc1O [Synthesis Example E-(33), 2-hexadecylbenzene-1,4-diol] | + | + | – | 1.53 mM | – |
| COc1ccc(OC)c(NCCCCCCCCCCCCCCCCO)c1 [Synthesis Example C-(21), 16-(2,5-dimethoxyphenylamino)hexadecan-1-ol] | − (−: >10 mM) | − (−: >10 mM) | – | – | – |
| COc1ccc(OC)c(CCCCCCCCCCCCCCO)c1 [Synthesis Example A-(6), 14-(2,5-dimethoxyphenyl)tetradecan-1-ol] | – | – | − (−: >10 mM) | – | OH test ([2]; Table 3, formula (1) compounds): − (−: >10 mM) |
| COc1ccc(OC)c(CCCCCCCCCCCCCCCCCCO)c1 [Synthesis Example A-(9), 18-(2,5-dimethoxyphenyl)octadecan-1-ol] | – | – | − (−: >10 mM) | > 10 mM | IC50 [2, 6]: > 10000 µM; OH test ([2]; Table 3, formula (1) compounds): − (−: >10 mM) |
